The subject of series [1] is C. albicans. Nature of the series: Yeast membrane permeability, propidium iodide incorporation (flow cytometry). The class given is cell-based, Candida albicans. Here is the method: C. albicans was suspended in RPMI/MOPS media to a total concentration of 2 × 10^6 cfu/mL. One ml aliquots of the C. albicans suspension were treated with each mimetic compound at a concentration of 32 µg/mL, using 95% ethanol as positive control. Samples were incubated with the mimetics at 30 °C for 0, 5, 15 and 30 min. After treatment, samples were centrifuged at 5000 rpm for 5 min. Supernatants were removed and pellets were washed twice with 1 mL of PBS. […] Samples were analyzed by flow cytometry (FACSCalibur, Becton Dickinson, Immunocytometry Systems, San Jose, CA, USA) to assess percent uptake of PI.
Background: A flow cytometer gives signals particle by particle.

Series [2] deals with whole human blood. The experiment in a line: Hemolysis assay. Format: cell-based. The note with it: 0.5 h, 30 min, 37 °C. Here is the method:
Peptide mimetic compounds were tested in duplicate using a hemolysis assay previously published. Briefly, two-fold serial dilutions starting at 2 mg/mL in 150 mM NaCl (saline), 20% DMA (Alfa Aesar, Ward Hill, MA, US), or 10% kleptose in saline. 3% saponin (Fluka) in saline was used as a positive control. Each dilution of each compound (25 µL) was plated in a 96-well round bottomed plate and 25 µL of whole human blood (BIORECLAMATION, Westbury, NY, USA) was added to each sample and mixed for 10 second. The blood was Type O, from 2 males and 2 females, collected with potassium EDTA to prevent clotting. Plates were incubated on a shaker for 30 min at 37 °C, then centrifuged at 600× g for 5 min. 5 µL of the supernatant was transferred to a 96-well flat-bottomed plate with 200 µL H2O in each well and mixed for 5 min. Absorbance was read at 405 nm (Spectramax 250, Molecular Devices, San Jose, CA, USA). Percent hemolysis was then calculated as:
P = (OD405 (PMX compound) – OD405 (control))/(OD405 (Saponin) – OD405 (control))
Curves were fitted to report an HC50 (50% hemolysis) value for each compound: […]

Series [3] deals with C. tropicalis (ATCC 750). Nature of the series: MIC broth microdilution, C. tropicalis. Format: cell-based. Conditions: Candida tropicalis, ATCC750; read-out: NAC species MIC, C. tropicalis. Here is the method: (§1) A standard invasive candidiasis strain of C. albicans SC5314 was used for peptide mimetic compounds screening. Non-albicans Candida species (NAC) C. dubliniensis (NCPF3949), C. glabrata (ATCC 90030), C. krusei (ATCC 6258), C. parapsilosis (ATCC 22019) and C. tropicalis (ATCC 750) (obtained from the laboratory of David Perlin, PHRI/Rutgers), were cultured on YPD (1% yeast extract, 2% peptone, 2% dextrose, pH 5.7) agar at 37°C and were used for all experimental studies. Fluconazole resistant clinical isolates of C. glabrata from five different patients and C. tropicalis from one patient were collected from the clinical microbiology laboratory, Shands Hospital, University of Florida, Gainesville, FL, USA.
(§2) Candida albicans […], NAC species and fluconazole-resistant clinical isolates of invasive candidiasis strains of C. glabrata and C. tropicalis were used for minimum inhibitory concentration (MIC) and minimum fungicidal concentration (MFC) studies of lead compounds. MICs were determined using the Clinical and Laboratory Standards Institute (CLSI) standard broth microdilution method. Suspensions of C. albicans were prepared by measuring optical density at 595 nm (OD595) of 1.0 in phosphate buffered saline (PBS). HDP mimetic compounds were diluted in 50 µL RPMI/MOPS cell culture medium in a 96-well plate (tissue culture treated; Costar, Corning Incorporated, Corning, NY, USA). To each well, a suspension (50 µL) of Candida was added, and then plate was incubated at 37 °C in a humidified chamber for a period of 24 h. To determine the MFC, a sample (100 µL) from the well defined as having the MIC and the wells with other three higher concentrations were plated onto YPD agar. Candida colonies were observed after 24 h. The MFC is defined as the lowest concentration of compound at which no colonies are observed. All MIC and MFC assays were performed in duplicate.
On the technique in general: Dilution methods test growth across graded concentrations, often in twofold steps.

Series [4] can be described thus: Maximum tolerated dose (MTD) determination. The note with it: mouse, in vivo, sc. Here is the method:
Female CD-1 mice (Charles River Laboratories), 8–10 weeks old, >20 g were used to determine the MTD. Mice were housed individually in stainless steel, wire-bottom cages to minimize access to urine and feces and fed Harlan Teklad Certified Global Diet® with tap water ad libitum. Mice were acclimated to the study room at least 3 days prior to dosing. Mice (3 per group) were dosed with a subcutaneous (SC) bolus injection beginning with 10 mg/kg of the test compound at a concentration of 2 mg/mL. Doses were lowered two-fold for subsequent groups to find the MTD. The dose volume was […], calculated using the weight of the animal on the day of injection. There were 3 dose events, with 2 days between each event. […] Body weights were obtained daily until the day of euthanization with a CO2 overdose. Any mortality during the study was also recorded. MTD data were obtained by Ricerca Biosciences, LLC, Concord, OH, USA. MTD of each HDP mimetic in CD-1 mice was determined and our studies utilized doses beginning with 0.5X MTD.

Series [5] has as its system Candida albicans, strain SC5314. Nature of the series: MIC/MFC, CLSI broth microdilution, C. albicans. The class given is cell-based. The method, then:
as §1, §2

For series [6], the system named is C. glabrata (ATCC 90030). The experiment in a line: MIC broth microdilution, C. glabrata. The note with it: Nakaseomyces glabratus, ATCC90030; read-out: NAC species MIC, C. glabrata. Format: cell-based, Candida glabrata. The method, then:
as §1, §2

Series [7] can be described thus: Mammalian cell cytotoxicity, MTS viability assay, 3T3. The class given is cell-based. Conditions: mouse, 3T3 fibroblasts (ATCC CRL-1658), 3T3 cells, 1 h exposure without serum. The method, then:
Cytotoxicity (50% effective concentration (EC50)) was determined against mouse 3T3 fibroblasts (ATCC CRL-1658), OKF6/TERT-1 cells (oral keratinocytes), and human transformed liver HepG2 cells (ATCC HB-8065), using an MTS viability assay (Promega, Fitchburg, WI, USA). Growth medium was replaced with medium without serum, and eight 2-fold dilutions of compound were added. Following incubation for 1 h at 37 °C, compounds were removed, and medium containing serum was returned. Viability was determined using an MTS viability assay (CellTiter 96 aqueous nonradioactive cell proliferation assay, Promega).
For orientation: Tetrazolium dyes change colour on reduction, which living cells bring about.

Series [8] deals with C. dubliniensis (NCPF3949). Nature of the series: MIC broth microdilution, C. dublinensis. Format: cell-based. The note with it: Candida dubliniensis, read-out: NAC species MIC, C. dublinensis. Here is the method:
as §1, §2

Series [9] relates to C. krusei (ATCC 6258). Nature of the series: MIC broth microdilution, C. krusei. The class given is cell-based, Candida krusei. Conditions: Pichia kudriavzevii, ATCC6258; read-out: NAC species MIC, C. krusei. The method, then: as §1, §2
Series [10] has as its system C. parapsilosis (ATCC 22019). The experiment in a line: MIC broth microdilution, C. parapsilosis. Format: cell-based, Candida parapsilosis. The note with it: Lodderomyces parapsilosis, ATCC22019; read-out: NAC species MIC, C. parapsilosis. Here is the method:
as §1, §2

Series [11] deals with C. albicans. The experiment in a line: MIC assay in the presence of CaCl2 (divalent cation inhibition). Format: cell-based. The note with it: Candida albicans, 2.5 mM CaCl2. The method, then:
as §2, with “The MFC is defined as the lowest concentration of compound at which no colonies are observed. All MIC and MFC assays were performed in duplicate.” left out
To assess the effect of a divalent cations on the electrostatic interaction between mimetics and cell membrane of yeast, we used calcium chloride at concentrations of 2, 5, 7.5 and 10 […]. […] At each concentration of this cation, the MIC of mimetics were determined by the method described above.

The subject of series [12] is C. albicans SC5314. The experiment in a line: Immunosuppressed mouse model of invasive candidiasis, kidney burden. The class given is in vivo, CD-1 mice. The note with it: 20 mg/kg by gavage 2 h after infection, 24 h, average of four independent experiments. Here is the method:
C. albicans SC5314 were grown in YPD broth (Difco laboratories, Detroit, MI, USA) and stock cultures were stored at −80 °C. The frozen stocks were first grown on YPD plates and kept at 4 °C. Prior to each experiment, a stock inoculum suspension of Candida was prepared in YPD broth and incubated at 30 °C with shaking at 200 rpm for 12 h. The culture was washed twice with sterile 1X phosphate buffered saline (PBS), counted with a hemocytometer, and diluted with PBS to get the desired concentration of 3.5 × 10^5 cfu/mL. 100 µL was injected intravenously (IV) into each mouse via the tail vein. […]
Male CD-1 mice, 6–8 weeks old (20–22 g), were made neutropenic with two intraperitoneal (IP) injections of 150 mg/kg in 10 mL/kg cyclophosphamide four days and one day before inoculation. […] 2 h after C. albicans inoculation, mimetic compounds were injected subcutaneously (SC) at 0.5X of the MTD (determined by […] as described). Fluconazole (20 mg/kg) was administered to another group by oral gavage at 2 h post inoculation, as a positive control for the experiments, to confirm the ability to quantify an effect on kidney burden. […] Serial dilutions of the tissue homogenates were conducted, 0.1 mL aliquots were spread on YPD agar plates, and the plates incubated at 35 °C overnight. cfu/g kidneys were determined from colony counts. […]

[13] abbreviates: 32 µg/mL HDP mimetic, C. albicans.
[14] abbreviates: C. albicans SC5314, 50% human serum, read-out: MIC+50% Human serum.
[15] abbreviates: C. albicans SC5314, without human serum.
Setting [16] is: C. albicans SC5314, without human serum, 24 h, read-out: MIC.

Values after ≈ are worked out from the molar mass of the structure shown. Read-outs that look alike come from different tables or passages of the source.

On to `CCO` [95% ethanol, ethanol, reference compound], for which the “PI entered the cell” value in [1] (positive control, within 7 min) is 100%.

By EC50 is commonly meant the concentration needed to bring the measured effect to its halfway point. Read a low EC50 as a more potent agent. The term MIC denotes the lowest concentration that inhibits growth of the organism. As usually defined, the MFC is the smallest concentration meeting the test's criterion for killing the fungus. Take `N=C(N)N1CCN(c2ccc(-c3cc(-c4ccc(N5CCN(C(=N)N)CC5)cc4)ncn3)cc2)CC1` [Compound 1]: the “time to maximum incorporation of PI” value in series [1] (setting [13]) is 30 min. Moreover, the EC50 in series [2] was above 1790 µM. Further, the MIC in series [3] was 4 to 8 µg/mL (≈ 8.25 to 16.5 µM); in [5] (setting [14]), 4 µg/mL (≈ 8.25 µM); in series [5] (setting [16]), 4 µg/mL (≈ 8.25 µM); in [6] it was 4 µg/mL (≈ 8.25 µM); in series [8], 8 µg/mL (≈ 16.5 µM); in [9], 32 µg/mL (≈ 66 µM). Further, the MIC in [10] was 4 to 8 µg/mL (≈ 8.25 to 16.5 µM). This compound yielded an MTD in series [4] of 10 mg/kg free base. For the same compound, the minimum fungicidal concentration (MFC) in [5] (setting [15]) was 8 µg/mL (≈ 16.5 µM). In addition, the EC50 at 1 h in series [7] is 311 µM.

In the case of `N=C(N)NCCCc1cc(CCCNC(=N)N)cc(NC(=O)c2ccc(C(=O)Nc3cc(CCCNC(=N)N)cc(CCCNC(=N)N)c3)cc2)c1` [Compound 2], in series [1] (setting [13]), the “time to maximum incorporation of PI” value amounted to 30 min. Moreover, the MIC in series [11] is above 60 µg/mL; in series [3], 8 µg/mL (≈ 11.2 µM); in series [5] (setting [14]) it was 4 µg/mL (≈ 5.61 µM); in [5] (setting [16]) it was 4 µg/mL (≈ 5.61 µM); in [6], 8 µg/mL (≈ 11.2 µM); in series [8], 32 µg/mL (≈ 44.9 µM). In addition, the MIC in series [9] is 8 µg/mL (≈ 11.2 µM); in series [10] it was 1 µg/mL (≈ 1.4 µM). This compound also yielded an EC50 in series [2] above 1160 µM. The same compound displayed an MTD in series [4] of 10 mg/kg free base. Further, in series [5] (setting [15]), the MFC is 16 µg/mL (≈ 22.4 µM). Besides, the midpoint of the response in series [7], the EC50 at 1 h, lay at 358 µM.

As to `NCCCOc1cc(OCCCN)cc(-c2ccc3c(c2)c2cc(-c4cc(OCCCN)cc(OCCCN)c4)ccc2n3CCCN)c1` [Compound 4], the “rate of membrane activity (PI incorporation)” value in series [1] (32 µg/mL HDP mimetic, C. albicans, comparison among compounds) is given as “most rapid membrane activity”. The compound further registered an EC50 in series [2] above 1170 µM. Also, the MIC in series [3] is 2 to 4 µg/mL (≈ 2.99 to 5.98 µM); in series [5] (setting [14]), 4 µg/mL (≈ 5.98 µM); in [5] (setting [16]), 4 µg/mL (≈ 5.98 µM); in series [6], 2 µg/mL (≈ 2.99 µM); in [8], 4 µg/mL (≈ 5.98 µM); in [9], 16 µg/mL (≈ 23.9 µM). The MIC in series [10] worked out at 2 µg/mL (≈ 2.99 µM). In [4], this compound displayed an MTD of 20 mg/kg free base. In series [5] (setting [15]), the MFC worked out at 8 µg/mL (≈ 12 µM). For the same compound, the midpoint of the response in [7], the EC50 at 1 h, lay at 436 µM.

As for `OC(Cn1cncn1)(Cn1cncn1)c1ccc(F)cc1F` [Fluconazole, fluconazole, reference compound], the minimal inhibitory concentration (MIC) in [5] (setting [16]) worked out at 0.25 µg/mL (≈ 0.816 µM). Also, the “log10 reduction in kidney cfu” value in series [12] was 3 log.
